Reference: patent US20110045033A1, “Combination of Itriglumide and Proton Pump Inhibitors in the Treatment of Gastrointestinal and Related Disorders” (priority 2005, published 2011)

How the values were obtained:
[1] = system: acute reflux esophagitis in pylorus-ligated rats; test: Acute reflux esophagitis in pylorus-ligated rats (macroscopic lesion index); format: in vivo, rat; design: key to Average Score lesions: lesion index 0 = no lesion to 6 = hemorrhage >40 mm or perforation; conditions: for % Effect vs. control / Average Score lesions: 3 h after ligation; for ED50: Rattus norvegicus, intraduodenal, drug administered separately, intraduodenally, from dose-response regression line, read-out: ED50 (dose which reduces of 50% the esophagus lesions)
Method: Male rats of 175-200 g body weight were fasted for 24 hours prior the experiment. Water was allowed ad libitum. Under ether anaesthesia, the abdomen was incised along the midline, and both pylorus and limiting ridge (transitional region between the forestomach and corpus) were simultaneously ligated. Consequently, the total capacity of the stomach to hold gastric juice was greatly diminished, resulting in reflux of gastric juice into the esophagus. Following ligation of pylorus and limiting ridge, the test compounds were given intraduodenally (5 ml/kg), and the abdomen was closed by suturing. After 3 hours, rats were killed by ether overdose and the gastroesophageal portion was excised. The lesion in the thoracic esophagus was scored macroscopically, using a lesion index according to the following criteria: no lesion as 0; oedema as 1; reddening as 2; the length of hemorrhagic area <20 mm as 3; the length of hemorrhagic area 20-30 mm as 4; the length of hemorrhagic area 30-40 mm as 5; the length of hemorrhagic area >40 mm or perforation as 6.
The doses of the tested compounds which reduce of 50% the esophagus lesions (ED50) were calculated from the dose-response regression line.

[2] = system: chronic model of reflux esophagitis in rats; test: Chronic acid reflux esophagitis in rat (forestomach ligation and pyloric stenosis); format: in vivo; conditions: 15 days; for Occurrence of Esophagitis: animals affected/surviving
Text: The method was according to Omura N., et al. (Scand. J gastroenterol. 1999; 34:948-953) with slight modifications.
Male Wistar rats, 10 weeks old, were kept in controlled animal room 1 week prior to use and fed with standard diet. A day before the experiment rats were deprived of food but allowed free access to water.
This model consists of gastric outlet obstruction obtained by ligation of forestomach and pyloric stenosis. Rats were operated under air/halothane anaesthesia; after opening the abdomen with a median incision, the transitional region between forestomach and the glandular portion was ligated and then the forestomach was blocked with other two ligations. Pyloric stenosis were obtained by wrapping a duodenum near the pylorus with a piece (about 2 mm) of a catheter (3.5 mm inner diameter) as a ring. The ring was closed by thermocautery and fixed to the pylorus with a nylon thread. The abdomen was closed by suturing.
After the operation the rats (10 animals per group) were deprived of diet for 48 h but had free access to water.
Drugs were administered once a day, starting on day zero, by subcutaneous injection. During the experiment body weight as well as the mortality were recorded.
The animals were killed 15 days later by overdose of ether inhalation. The abdomen was opened and the esophagus excised and placed on a cork plate. The presence and extension of esophagitis sites was evaluated by macroscopic observation. Each site of esophagitis was measured (mm of length×mm of width). Data were expressed as mm^2 of esophagitis area (mean area group).

[3] = Itriglumide 2.5 mg/kg intraduodenally
[4] = Itriglumide 5.0 mg/kg intraduodenally
[5] = Itriglumide 10 mg/kg intraduodenally
[6] = Itriglumide 20 mg/kg intraduodenally
[7] = Itriglumide 10 mg/kg s.c. once a day
[8] = Omeprazole 0.1 mg/kg intraduodenally
[9] = Omeprazole 0.3 mg/kg intraduodenally
[10] = Omeprazole 1.0 mg/kg intraduodenally
[11] = Omeprazole 3.0 mg/kg intraduodenally
[12] = Omeprazole 0.5 mg/kg s.c. once a day
[13] = Omeprazole 1 mg/kg s.c. once a day
[14] = Omeprazole 2 mg/kg s.c. once a day

Compound: Cc1cc(C)c(NC(=O)C[C@H](CC(=O)O)c2cccc3ccccc23)c(C(=O)N2CCC3(CCCC3)CC2)c1 [Itriglumide, (R)-1-napthalenepropanoic acid-β[2[(2-(8-azaspiro[4.5.]dec-8-ylcarbonyl)4,6-dimethylphenyl]amino]-2-oxoethyl]]
- % Effect vs. control [1, 3]: 0%
- Average Score lesions [1, 3]: 5.2
- % Effect vs. control [1, 4]: 27.5%
- Average Score lesions [1, 4]: 3.7
- % Effect vs. control [1, 5]: 51.0%
- Average Score lesions [1, 5]: 2.5
- % Effect vs. control [1, 6]: 82.3%
- Average Score lesions [1, 6]: 0.9
- ED50 [1]: 9.1 mg/kg
- % Protection vs. control [2, 7]: 42.1%
- Survival Rate (%) [2, 7]: 90%
- Total average size of ulcers (mm^2) [2, 7]: 33 mm^2
- Occurrence of Esophagitis [2, 7]: 4/9

Compound: COc1ccc2[nH]c([S+]([O-])Cc3ncc(C)c(OC)c3C)nc2c1 (centres unmarked) [Omeprazole]
- % Effect vs. control [1, 8]: 3.4%
- Average Score lesions [1, 8]: 5.6
- % Effect vs. control [1, 9]: 0%
- Average Score lesions [1, 9]: 5.8
- % Effect vs. control [1, 10]: 17.2%
- Average Score lesions [1, 10]: 4.8
- % Effect vs. control [1, 11]: 53.4%
- Average Score lesions [1, 11]: 2.7
- ED50 [1]: 4.9 mg/kg
- % Protection vs. control [2, 12]: 17.5%
- Survival Rate (%) [2, 12]: 80%
- Total average size of ulcers (mm^2) [2, 12]: 47 mm^2
- Occurrence of Esophagitis [2, 12]: 6/8
- % Protection vs. control [2, 13]: 28.0%
- Survival Rate (%) [2, 13]: 90%
- Total average size of ulcers (mm^2) [2, 13]: 41 mm^2
- Occurrence of Esophagitis [2, 13]: 6/9
- % Protection vs. control [2, 14]: 49.1%
- Survival Rate (%) [2, 14]: 90%
- Total average size of ulcers (mm^2) [2, 14]: 29 mm^2
- Occurrence of Esophagitis [2, 14]: 3/9
- ED50 ([2]; Rattus norvegicus, sc, 360 h, Omeprazole alone, s.c. once a day): 2.2 mg/kg
